Test results taken from patent US20240217954A1, “CRYSTAL FORM IV OF ORGANIC ACID SALTS OF MELANOCORTIN RECEPTOR AGONIST COMPOUND, AND PREPARATION METHOD THEREOF” (LG CHEM, LTD., priority 2021, published 2024).
Read-outs that look alike come from different tables or passages of the source.

Assay: Solubility assessment: visual, by final volume of water added until the sample is completely dissolved
Experimental: Solubility indicates the result of measurement based on the final volume of water added to a sample when it is visually confirmed that the sample is completely dissolved by adding water to the sample. The solubility of the actual sample may be higher than the measured solubility. Solubility was measured based on the final volume of water added to a sample when it was visually confirmed that the sample was completely dissolved by adding water to the sample.

[1] = in water, visual complete dissolution, actual solubility may be higher than measured

Compound	solubility [1]	solubility
CC(C)C(=O)N([C@H]1C[C@@H](C(=O)N2CCOCC2)N(C(=O)[C@@H]2CN(C(C)(C)C)C[C@H]2c2ccc(Cl)cc2)C1)[C@H]1CC[C@@H](C)CC1.O=S(=O)(O)c1ccccc1 [Example 2, N-((3S,5S)-1-((3S,4R)-1-(tert-butyl)-4-(4-chlorophenyl)pyrrolidine-3-carbonyl)-5-(morpholine-4-carbonyl)pyrrolidin-3-yl)-N-((1 s,4R)-4-methylcyclohexyl)isobutyramide benzene sulfonate]	more than 1 mg/mL	–
CC(C)C(=O)N([C@H]1C[C@@H](C(=O)N2CCOCC2)N(C(=O)[C@@H]2CN(C(C)(C)C)C[C@H]2c2ccc(Cl)cc2)C1)[C@H]1CC[C@@H](C)CC1.Cc1ccc(S(=O)(=O)O)cc1 [Example 3, N-((3S,5S)-1-((3S,4R)-1-(tert-butyl)-4-(4-chlorophenyl)pyrrolidine-3-carbonyl)-5-(morpholine-4-carbonyl)pyrrolidin-3-yl)-N-((1 s,4R)-4-methylcyclohexyl)isobutyramide toluene sulfonate]	–	more than 10 mg/mL
CC(O)C(=O)O.CC1CCC(N(C(=O)C(C)C)[C@H]2C[C@@H](C(=O)N3CCOCC3)N(C(=O)[C@@H]3CN(C(C)(C)C)C[C@H]3c3ccc(Cl)cc3)C2)CC1 (stereo partly drawn) [Example 1, N-((3S,5S)-1-((3S,4R)-1-(tert-butyl)-4-(4-chlorophenyl)pyrrolidine-3-carbonyl)-5-(morpholine-4-carbonyl)pyrrolidin-3-yl)-N-((1 s,4R)-4-methylcyclohexyl)isobutyramide lactate]	more than 24 mg/mL	–
